In patent publication US7473669B2, “Substituted 4,5-dihydro-1,2,4-triazin-6-ones, 1,2,4-triazin-6-ones, and their use as fungicides” (priority 2005, dated 2009):

How the values were obtained:
Format in all cases: in vivo
[1] = test system: Erysiphe cichoracaerum; assay: Cucumber Powdery Mildew greenhouse one-day protectant test; conditions: 24 h, cucumber plants, one-day protectant test, 200 ppm application rate, read-out: ERYSCI percent control rating
[2] = test system: Colletotricum lagenarium; assay: Cucumber Anthracnose greenhouse one-day protectant test; conditions: Cucumis sativus, 24 h, cucumber plants, one-day protectant test, 200 ppm application rate; read-out: COLLLA percent control rating
[3] = test system: Puccinia recondita tritici; assay: Leaf Rust of Wheat greenhouse one-day protectant test; conditions: 24 h, wheat plants, one-day protectant test, 200 ppm application rate, read-out: PUCCRT percent control rating
[4] = test system: Phytophthora infestans; assay: whole plant or invertebrate; conditions: in Solanum lycopersicum, 24 h, read-out: PHYTIN percent control rating, tomato plants, one-day protectant test, 200 ppm application rate
[5] = test system: Pyricularia oryzae; assay: whole plant or invertebrate; conditions: 24 h, read-out: PYRIOR percent control rating
[6] = test system: Leptosphaeria nodorum; assay: Glume Blotch of Wheat greenhouse one-day protectant test; conditions: Parastagonospora nodorum, 24 h; wheat plants, one-day protectant test, 200 ppm application rate; read-out: LEPTNO percent control rating

Structure (SMILES) | pest or weed control at 200 ppm [1] [%] | pest or weed control at 200 ppm [2] [%] | pest or weed control at 200 ppm [3] [%] | pest or weed control at 200 ppm [4] [%] | pest or weed control at 200 ppm [5] [%] | pest or weed control at 200 ppm [6] [%]
Cc1cc(C)cc(C2=NN(CC(F)(F)F)C(=O)C(SCCCCl)N2)c1 (stereo not drawn) [Compound 39] | 0 to 49 | 80 to 100 | 80 to 100 | 0 to 49 | 80 to 100 | 80 to 100
Cc1ccccc1-c1cccc(C2=NN(CC(F)(F)F)C(=O)C(SC3CCCCC3)N2)c1 (stereo not drawn) [Compound 51] | 0 to 49 | 50 to 79 | 80 to 100 | 0 to 49 | 80 to 100 | 80 to 100
O=c1cnc(-c2csc(-c3ccccc3)c2)nn1CC(F)(F)F [Compound 79] | 0 to 49 | 50 to 79 | 80 to 100 | 0 to 49 | 80 to 100 | 80 to 100
CNc1cc(F)nc(Oc2cccc(C3=NN(CC(F)(F)F)C(=O)CN3)c2)n1 [Compound 32] | 0 to 49 | 0 to 49 | 50 to 79 | 0 to 49 | 0 to 49 | 80 to 100
O=C1CNC(c2cc(Cl)cc(Cl)c2)=NN1CN1CCOCC1 [Compound 15] | 0 to 49 | 0 to 49 | 0 to 49 | 0 to 49 | 80 to 100 | 50 to 79
Cc1cc(C)cc(C2=NN(Cc3ccccn3)C(=O)CN2)c1 [Compound 5] | 0 to 49 | 50 to 79 | 0 to 49 | 0 to 49 | 0 to 49 | 80 to 100
O=C1CNC(c2cccc(Oc3nc4ccc(Cl)cc4s3)c2)=NN1CC(F)(F)F [Compound 27] | 0 to 49 | 50 to 79 | 80 to 100 | 0 to 49 | 80 to 100 | 80 to 100
Cc1cc(C)cc(-c2ncc(=O)n(CCOc3ccccc3)n2)c1 [Compound 86] | 0 to 49 | 80 to 100 | 80 to 100 | 0 to 49 | 80 to 100 | 80 to 100
O=C1C(SC2CCCCC2)NC(c2ccc(Br)s2)=NN1CC(F)(F)F (stereo not drawn) [Compound 50] | 0 to 49 | 50 to 79 | 80 to 100 | 0 to 49 | 80 to 100 | 80 to 100
O=C1CNC(c2cc(Cl)cc(Cl)c2)=NN1Cc1c(F)c(F)c(F)c(F)c1F [Compound 65] | 0 to 49 | 80 to 100 | 0 to 49 | 0 to 49 | 50 to 79 | 80 to 100
Cc1cc(C)cc(C2=NN(CC(F)(F)F)C(=O)C(OC3CCCCC3)N2)c1 (stereo not drawn) [Compound 41] | 0 to 49 | 50 to 79 | 80 to 100 | 0 to 49 | 80 to 100 | 80 to 100
COc1ccccc1-c1cccc(C2=NN(CC(F)(F)F)C(=O)C(SC3CCCCC3)N2)c1 (stereo not drawn) [Compound 53] | 0 to 49 | 50 to 79 | 80 to 100 | 0 to 49 | 80 to 100 | 80 to 100
O=C1CNC(c2cccc(Oc3ccnc(Cl)c3)c2)=NN1CC(F)(F)F [Compound 33] | 0 to 49 | 0 to 49 | 80 to 100 | 0 to 49 | 0 to 49 | 50 to 79
O=C1CNC(c2cc(Cl)cc(Cl)c2)=NN1Cc1ccccn1 [Compound 6] | 0 to 49 | 50 to 79 | 80 to 100 | 0 to 49 | 80 to 100 | 80 to 100
O=C1CNC(c2ccc(-c3ccc(C(F)(F)F)cc3)nc2)=NN1CCF [Compound 35] | 0 to 49 | 50 to 79 | 80 to 100 | 50 to 79 | 80 to 100 | 80 to 100
O=C1CNC(c2cccc(/C=C3/CCc4ccccc43)c2)=NN1CC(F)(F)F [Compound 72] | 0 to 49 | 0 to 49 | 80 to 100 | 0 to 49 | 80 to 100 | 80 to 100

Structure (SMILES) | pest or weed control at 200 ppm [1] [%] | pest or weed control at 200 ppm [2] [%] | pest or weed control at 200 ppm [3] [%] | pest or weed control at 200 ppm [4] [%] | pest or weed control at 200 ppm [5] [%] | pest or weed control at 200 ppm [6] [%]
O=c1cnc(-c2ccc(F)c(Br)c2)nn1Cc1ccc(Cl)nc1 [Compound 97, (3-bromo-4-fluoro-phenyl)-1-(6-chloro-pyridin-3-ylmethyl)-1H-[1,2,4]triazin-6-one] | 0 to 49 | 50 to 79 | 80 to 100 | 0 to 49 | 80 to 100 | 80 to 100
O=C1CNC(c2cccc(-c3ccc(Cl)s3)c2)=NN1CC(F)(F)F [Compound 29] | 0 to 49 | 0 to 49 | 80 to 100 | 0 to 49 | 50 to 79 | 80 to 100
CCCCN1N=C(c2cc(-c3ccsc3)cc(-c3ccsc3)c2)NCC1=O [Compound 62] | 0 to 49 | 0 to 49 | 0 to 49 | 0 to 49 | 0 to 49 | 80 to 100
Cc1cc(C)cc(C2=NN(CC(F)(F)F)C(=O)C(SCc3ccccc3)N2)c1 (stereo not drawn) [Compound 36] | 0 to 49 | 80 to 100 | 80 to 100 | 0 to 49 | 80 to 100 | 80 to 100
CON=C(c1ccccc1)c1cccc(C2=NN(CC(F)(F)F)C(=O)C(SC3CCCCC3)N2)c1 (stereo not drawn) [Compound 56] | 0 to 49 | 0 to 49 | 50 to 79 | 0 to 49 | 80 to 100 | 80 to 100
O=C1C(SC2CCCCC2)NC(c2ccc(Oc3ccccc3)c(-c3ccccc3)c2)=NN1CC(F)(F)F (stereo not drawn) [Compound 45] | 0 to 49 | 50 to 79 | 50 to 79 | 0 to 49 | 80 to 100 | 80 to 100
O=C1CNC(c2cc(Cl)cc(Cl)c2)=NN1CO [Compound 8] | 0 to 49 | 0 to 49 | 0 to 49 | 0 to 49 | 0 to 49 | 50 to 79
O=C1C(SC2CCCCC2)NC(c2cccc(-c3ccsc3)c2)=NN1CC(F)(F)F (stereo not drawn) [Compound 55] | 0 to 49 | 50 to 79 | 50 to 79 | 0 to 49 | 80 to 100 | 80 to 100
O=C1C(SC2CCCCC2)NC(c2cccc(/C=C\c3ccccc3)c2)=NN1CC(F)(F)F (stereo not drawn) [Compound 47] | 80 to 100 | 80 to 100 | 80 to 100 | 0 to 49 | 80 to 100 | 80 to 100
O=C1CNC(c2ccccc2)=NN1CCO [Compound 4] | 0 to 49 | 0 to 49 | 0 to 49 | 0 to 49 | 0 to 49 | 0 to 49
O=c1cnc(-c2ccc(-c3ccc(Cl)s3)nc2)nn1CC(F)(F)F [Compound 88] | 0 to 49 | 0 to 49 | 0 to 49 | 0 to 49 | 0 to 49 | 50 to 79
O=c1cnc(-c2cccc(CC3=CCc4ccccc43)c2)nn1CC(F)(F)F [Compound 90] | 0 to 49 | 0 to 49 | 50 to 79 | 0 to 49 | 80 to 100 | 50 to 79
O=C1CNC(c2cccc(OCc3ccccc3)c2)=NN1c1cccc(Br)c1 [Compound 21] | 0 to 49 | 0 to 49 | 50 to 79 | 0 to 49 | 80 to 100 | 50 to 79
O=C1CNC(c2cccc(Oc3ncccn3)c2)=NN1CC(F)(F)F [Compound 31] | 0 to 49 | 0 to 49 | 0 to 49 | 0 to 49 | 0 to 49 | 50 to 79
O=C1CNC(c2cc(Cl)cc(Cl)c2)=NN1CCO [Compound 7] | 0 to 49 | 0 to 49 | 50 to 79 | 0 to 49 | 0 to 49 | 50 to 79
